“And” between values parts separate entries of the source, which are not always exact repeats. Equal values may be shown once. Inconclusive results and toxic doses are left out.
Tested on: L1210 leukemia ip in BDF1 mice, survival T/C
Assay: NCI In Vivo Anticancer Drug Screen. Data for tumor model L1210 Leukemia (intraperitoneal) in B6D2F1 (BDF1) mice
Conditions: endpoint: mean survival time, higher = longer survival
Method in brief: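 Antitumor effect is assessed in tumor-bearing animals. Survival in the compound arm is compared with a vehicle-dosed control arm and expressed as their quotient.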

[1] = dose: 100.0 mg/kg/injection, schedule: Q01DX001 (ip), vehicle: saline
[2] = dose: 200.0 mg/kg/injection, schedule: Q01DX001 (ip), vehicle: saline
[3] = dose: 100.0 mg/kg/injection, schedule: Q04DX003 (ip), vehicle: saline
[4] = dose: 200.0 mg/kg/injection, schedule: Q04DX003 (ip), vehicle: saline
[5] = dose: 100.0 mg/kg/injection, schedule: Q01DX009 (ip), vehicle: Klucel (hydroxypropylcellulose) (HPC)
[6] = dose: 100.0 mg/kg/injection, schedule: Q04DX003 (ip), vehicle: Klucel (hydroxypropylcellulose) (HPC)
[7] = dose: 200.0 mg/kg/injection, schedule: Q01DX009 (ip), vehicle: Klucel (hydroxypropylcellulose) (HPC)
[8] = dose: 200.0 mg/kg/injection, schedule: Q04DX003 (ip), vehicle: Klucel (hydroxypropylcellulose) (HPC)
[9] = dose: 400.0 mg/kg/injection, schedule: Q01DX009 (ip), vehicle: Klucel (hydroxypropylcellulose) (HPC)
[10] = dose: 400.0 mg/kg/injection, schedule: Q04DX003 (ip), vehicle: Klucel (hydroxypropylcellulose) (HPC)
[11] = dose: 50.0 mg/kg/injection, schedule: Q01DX009 (ip), vehicle: saline
[12] = dose: 100.0 mg/kg/injection, schedule: Q01DX009 (ip), vehicle: saline
[13] = dose: 100.0 mg/kg/injection, schedule: Q01DX009 (ip), vehicle: saline with Tween-80
[14] = dose: 200.0 mg/kg/injection, schedule: Q01DX009 (ip), vehicle: saline with Tween-80
[15] = dose: 400.0 mg/kg/injection, schedule: Q01DX009 (ip), vehicle: saline with Tween-80

Structure (SMILES): O=C/C=C\c1ccccc1O
- T/C [1]: 105 % of control
- T/C [2]: 105 % of control

Structure (SMILES): CC(O)C1CCCNC1 (stereo not drawn)
- T/C [3]: 108 % of control
- T/C [4]: 97 % of control

Structure (SMILES): Cc1ccc(CNc2ccc(Br)cc2)cc1
- T/C [5]: 96 % of control
- T/C [6]: 101 % of control
- T/C [7]: 99 % of control
- T/C [8]: 102 % of control
- T/C [9]: 94 % of control
- T/C [10]: 101 % of control

Structure (SMILES): O=C1C(=O)C2=C(NCCC2)C(O)=C1Cl
- T/C (dose: 100.0 mg/kg/injection, schedule: Q01DX001 (ip), vehicle: water): 93 % of control
- T/C (dose: 200.0 mg/kg/injection, schedule: Q01DX001 (ip), vehicle: water): 95 % of control
- T/C (dose: 400.0 mg/kg/injection, schedule: Q01DX001 (ip), vehicle: water): 98 % of control

Structure (SMILES): O=NN(Cc1ccccc1)C(c1ccccc1)S(=O)(=O)O (stereo not drawn)
- T/C (dose: 75.0 mg/kg/injection, schedule: Q01DX009 (ip), vehicle: saline): 87 % of control
- T/C [1]: 112 % of control
- T/C (dose: 150.0 mg/kg/injection, schedule: Q01DX009 (ip), vehicle: saline): 87 % of control
- T/C [2]: 100 % of control
- T/C (dose: 300.0 mg/kg/injection, schedule: Q01DX009 (ip), vehicle: saline): 97 % of control
- T/C (dose: 400.0 mg/kg/injection, schedule: Q01DX001 (ip), vehicle: saline): 93 % of control

Structure (SMILES): CNC(=Nc1ccccc1)c1ccc(NC(=O)c2ccc(C(=O)Nc3ccc(C(=Nc4ccccc4)NC)cc3)cc2)cc1
- T/C (dose: 15.0 mg/kg/injection, schedule: Q01DX Z (ip), vehicle: saline): 100 % of control
- T/C (dose: 30.0 mg/kg/injection, schedule: Q01DX Z (ip), vehicle: saline): 105 % of control
- T/C (dose: 60.0 mg/kg/injection, schedule: Q01DX Z (ip), vehicle: saline): 102 % of control

Structure (SMILES): O=c1[nH]cnc2ccccc12
- T/C [5]: 107 % of control
- T/C [7]: 93 % of control
- T/C [9]: 103 % of control

Structure (SMILES): O=C(CCl)COP(=O)(O)O
- T/C (dose: 6.25 mg/kg/injection, schedule: Q01DX009 (ip), vehicle: other): 102 % of control
- T/C (dose: 12.5 mg/kg/injection, schedule: Q01DX001 (ip), vehicle: other): 102 % of control
- T/C (dose: 12.5 mg/kg/injection, schedule: Q01DX009 (ip), vehicle: other): 91 % of control
- T/C (dose: 12.5 mg/kg/injection, schedule: Q04DX003 (ip), vehicle: other): 91 % of control
- T/C (dose: 25.0 mg/kg/injection, schedule: Q01DX001 (ip), vehicle: other): 91 % of control
- T/C (dose: 25.0 mg/kg/injection, schedule: Q01DX009 (ip), vehicle: other): 101 % of control
- T/C (dose: 25.0 mg/kg/injection, schedule: Q04DX003 (ip), vehicle: other): 88 % of control
- T/C (dose: 50.0 mg/kg/injection, schedule: Q01DX001 (ip), vehicle: other): 96 % of control
- T/C (dose: 50.0 mg/kg/injection, schedule: Q01DX009 (ip), vehicle: other): 114 % of control
- T/C (dose: 50.0 mg/kg/injection, schedule: Q04DX003 (ip), vehicle: other): 93 % of control
- T/C (dose: 100.0 mg/kg/injection, schedule: Q01DX001 (ip), vehicle: other): 89 % of control
- T/C (dose: 100.0 mg/kg/injection, schedule: Q04DX003 (ip), vehicle: other): 106 % of control

Structure (SMILES): CC(=O)Nc1onc(C)c1N
- T/C [11]: 103 % of control
- T/C [12]: 98 % of control
- T/C [3]: 94 % of control
- T/C (dose: 200.0 mg/kg/injection, schedule: Q01DX009 (ip), vehicle: saline): 116 % of control and 88 % of control
- T/C [4]: 94 % of control
- T/C (dose: 400.0 mg/kg/injection, schedule: Q04DX003 (ip), vehicle: saline): 92 % of control

Structure (SMILES): C[N+]1(C)C2CCC(OCc3ccccc3)C1COC2 (stereo not drawn)
- T/C (dose: 75.0 mg/kg/injection, schedule: Q01DX001 (ip), vehicle: saline): 98 % of control
- T/C (dose: 150.0 mg/kg/injection, schedule: Q01DX001 (ip), vehicle: saline): 105 % of control

Structure (SMILES): CCc1ccc(OS(=O)(=O)c2ccccc2[N+](=O)[O-])cc1
- T/C [13]: 96 % of control
- T/C [6]: 100 % of control
- T/C [14]: 114 % of control
- T/C [8]: 100 % of control
- T/C [15]: 103 % of control
- T/C [10]: 95 % of control

Structure (SMILES): CCn1c(C)nc2cc(N=Cc3ccc(N(CCCl)CCCl)cc3F)ccc21
- T/C (dose: 100.0 mg/kg/injection, schedule: Q04DX002 (ip), vehicle: Klucel (hydroxypropylcellulose) (HPC)): 95 % of control
- T/C (dose: 200.0 mg/kg/injection, schedule: Q04DX002 (ip), vehicle: Klucel (hydroxypropylcellulose) (HPC)): 98 % of control
- T/C (dose: 400.0 mg/kg/injection, schedule: Q04DX002 (ip), vehicle: Klucel (hydroxypropylcellulose) (HPC)): 91 % of control

Structure (SMILES): CN(Cc1cnc2nc(N)nc(N)c2n1)c1cc(Cl)c(C(=O)NC(CCC(=O)O)C(=O)O)c(Cl)c1 (stereo not drawn)
- T/C (dose: 25.0 mg/kg/injection, schedule: Q01DX009 (ip), vehicle: sodium bicarbonate): 106 % of control
- T/C (dose: 50.0 mg/kg/injection, schedule: Q01DX009 (ip), vehicle: sodium bicarbonate): 107 % of control
- T/C (dose: 100.0 mg/kg/injection, schedule: Q01DX009 (ip), vehicle: sodium bicarbonate): 622 % of control
- T/C (dose: 200.0 mg/kg/injection, schedule: Q01DX009 (ip), vehicle: sodium bicarbonate): 120 % of control

Structure (SMILES): COC(=O)C1(C(=O)OC)C2CC(C)=C(C)CC21 (stereo not drawn)
- T/C (dose: 25.0 mg/kg/injection, schedule: Q01DX009 (ip), vehicle: saline): 109 % of control
- T/C [11]: 93 % of control
- T/C (dose: 100.0 mg/kg/injection, schedule: Q01DX009 (ip), vehicle: acetone): 90 % of control
- T/C [12]: 104 % of control
- T/C (dose: 200.0 mg/kg/injection, schedule: Q01DX009 (ip), vehicle: acetone): 94 % of control
- T/C (dose: 400.0 mg/kg/injection, schedule: Q01DX009 (ip), vehicle: acetone): 87 % of control

Structure (SMILES): CCOC(=O)C1(C(=O)OCC)C(C)CC2Nc3cc4c(cc3C(=O)N21)OCO4 (stereo not drawn)
- T/C (dose: 25.0 mg/kg/injection, schedule: Q04DX003 (ip), vehicle: Klucel (hydroxypropylcellulose) (HPC)): 94 % of control
- T/C (dose: 50.0 mg/kg/injection, schedule: Q04DX003 (ip), vehicle: Klucel (hydroxypropylcellulose) (HPC)): 101 % of control
- T/C [6]: 97 % of control

Structure (SMILES): CCOC(=O)C1(C)C(=O)CC2c3nc4ccccc4cc3CN2C1=O (stereo not drawn)
- T/C [5]: 109 % of control
- T/C [6]: 107 % of control
- T/C [7]: 113 % of control
- T/C [8]: 100 % of control
- T/C [9]: 92 % of control
- T/C [10]: 97 % of control

Structure (SMILES): NC1=NC(c2ccccc2)C2=C(N1)C(=O)N(Cc1ccccc1)C2 (stereo not drawn)
- T/C (dose: 50.0 mg/kg/injection, schedule: Q01DX001 (ip), vehicle: carboxymethylcellulose (CMC)): 98 % of control
- T/C (dose: 100.0 mg/kg/injection, schedule: Q01DX001 (ip), vehicle: carboxymethylcellulose (CMC)): 101 % of control
- T/C (dose: 200.0 mg/kg/injection, schedule: Q01DX001 (ip), vehicle: carboxymethylcellulose (CMC)): 98 % of control
- T/C (dose: 400.0 mg/kg/injection, schedule: Q01DX001 (ip), vehicle: carboxymethylcellulose (CMC)): 95 % of control

Structure (SMILES): OCCCOc1ccccc1
- T/C (dose: 100.0 mg/kg/injection, schedule: Q01DX001 (ip), vehicle: saline with Tween-80): 103 % of control
- T/C (dose: 200.0 mg/kg/injection, schedule: Q01DX001 (ip), vehicle: saline with Tween-80): 97 % of control
- T/C (dose: 400.0 mg/kg/injection, schedule: Q01DX001 (ip), vehicle: saline with Tween-80): 100 % of control

Structure (SMILES): O=C(N/N=C\c1ccc([N+](=O)[O-])cc1)c1ccccc1
- T/C [13]: 97 % of control
- T/C [14]: 94 % of control
- T/C [15]: 93 % of control
